Measured values published in article PMC5895699, “Catalytically active inclusion bodies of L-lysine decarboxylase from E. coli for 1,5-diaminopentane production” (Scientific Reports, 2018).

Target: T1, EcLDCc-CatIBs (EcLDCc-TDoT fusion; constitutive L-lysine decarboxylase from E. coli) (Escherichia coli, UniProt P52095)
T1 construct: gene ldcC; full-length EcLDCc with C-terminal 3xGGGS linker and TDoT coiled-coil tag (tetrabrachion, Staphylothermus marinus), pET28, E. coli BL21(DE3)
T1 sequence (P52095 1-713): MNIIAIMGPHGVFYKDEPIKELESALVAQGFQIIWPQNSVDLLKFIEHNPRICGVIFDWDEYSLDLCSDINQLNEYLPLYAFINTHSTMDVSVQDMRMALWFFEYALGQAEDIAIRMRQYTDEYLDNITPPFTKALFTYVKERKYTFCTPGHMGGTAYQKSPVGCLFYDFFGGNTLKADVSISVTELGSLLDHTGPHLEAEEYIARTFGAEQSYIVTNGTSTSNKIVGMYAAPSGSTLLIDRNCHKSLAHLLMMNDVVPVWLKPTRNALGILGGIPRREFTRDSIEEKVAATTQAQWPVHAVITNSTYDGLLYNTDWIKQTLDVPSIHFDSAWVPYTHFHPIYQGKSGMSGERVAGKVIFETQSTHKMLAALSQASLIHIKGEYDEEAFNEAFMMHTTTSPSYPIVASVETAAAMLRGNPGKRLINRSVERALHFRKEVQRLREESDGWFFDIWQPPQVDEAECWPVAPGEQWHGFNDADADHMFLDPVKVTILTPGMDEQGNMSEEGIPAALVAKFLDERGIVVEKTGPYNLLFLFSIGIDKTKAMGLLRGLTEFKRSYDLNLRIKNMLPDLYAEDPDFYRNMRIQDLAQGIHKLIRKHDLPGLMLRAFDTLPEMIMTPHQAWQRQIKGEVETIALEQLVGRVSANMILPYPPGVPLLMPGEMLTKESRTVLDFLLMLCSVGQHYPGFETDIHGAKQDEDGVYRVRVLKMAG
Assay: HPLC of […],5-diaminopentane formed, OPA derivatisation
Type: biochemical
Details: 50 mM KPi buffer, 10 mM L-lysine, 30 °C, pH 7-9 (general range; pH 9 differs); CatIB enzyme as prepared, not PLP-depleted

Cc1ncc(COP(=O)(O)O)c(C=O)c1O [pyridoxal-5′-phosphate]
% activity increase at 0.1 mM PLP: 5–15%
